The results in this text go back to PMC11576293, “New series of 4,6-diaryl pyrimidines: facile synthesis and antiproliferative activity as dual EGFR/VEGFR-2 inhibitors” (Frontiers in Chemistry, 2024).

Structures are written as SMILES.

By inhibition is commonly meant the relative decrease from the control value, in per cent.

One test has as its system HOP-62. In words: NCI-60 single-dose screen. The class given is cell-based. The settings on record: Homo sapiens, single dose 10 µM, '-' = no inhibition, read-out: % Growth Inhibition. Put shortly:
(§1)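 Single concentration of 10 μM applied to every line of the 60-cell-line NCI panel. Testing performed by NCI DTP.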
Turning to `CCSc1nc(-c2ccc(Cl)cc2)cc(-c2ccc(OC)c(OC)c2)n1` [Compound 24, 4-(4-Chlorophenyl)-2-(ethylthio)-6-(3,4-dimethoxyphenyl)pyrimidine], the inhibition at 10 µM was less than 0%.

A further test has as its system U251. The test is described as follows: NCI-60 single-dose screen. The format is cell-based. The settings on record: Homo sapiens, U-251, single dose 10 µM, '-' = no inhibition, read-out: % Growth Inhibition. Put shortly:
as §1
As for `CCSc1nc(-c2ccc(Cl)cc2)cc(-c2ccc(OC)c(OC)c2)n1` [Compound 24, 4-(4-Chlorophenyl)-2-(ethylthio)-6-(3,4-dimethoxyphenyl)pyrimidine], the inhibition at 10 µM turned out to be 14.7%.

Another test concerns NCI-H23. The test is described as follows: NCI-60 single-dose screen. The format is cell-based. Conditions: Homo sapiens, single dose 10 µM, '-' = no inhibition, read-out: % Growth Inhibition. Put shortly:
as §1
`CCSc1nc(-c2ccc(Cl)cc2)cc(-c2ccc(OC)c(OC)c2)n1` [Compound 24, 4-(4-Chlorophenyl)-2-(ethylthio)-6-(3,4-dimethoxyphenyl)pyrimidine]: the inhibition at 10 µM stood at 1.67%.

A further test concerns K-562. The test is described as follows: NCI-60 single-dose screen. The class given is cell-based. Conditions: Homo sapiens, K562, single dose 10 µM, '-' = no inhibition, read-out: % Growth Inhibition. Summed up:
as §1
Turning to `CCSc1nc(-c2ccc(Cl)cc2)cc(-c2ccc(OC)c(OC)c2)n1` [Compound 24, 4-(4-Chlorophenyl)-2-(ethylthio)-6-(3,4-dimethoxyphenyl)pyrimidine], the inhibition at 10 µM stood at 41.5%.

In a further test the test system is MDA-MB-468. In words: NCI-60 single-dose screen. The class given is cell-based. The settings on record: Homo sapiens, single dose 10 µM, '-' = no inhibition, read-out: % Growth Inhibition. Summed up:
as §1
As for `CCSc1nc(-c2ccc(Cl)cc2)cc(-c2ccc(OC)c(OC)c2)n1` [Compound 24, 4-(4-Chlorophenyl)-2-(ethylthio)-6-(3,4-dimethoxyphenyl)pyrimidine], the inhibition at 10 µM was 11.3%.

A further test deals with IGROV1. In words: NCI-60 single-dose screen. The format is cell-based. Conditions: Homo sapiens, IGROV-1, single dose 10 µM, '-' = no inhibition, read-out: % Growth Inhibition. Summed up:
as §1
Regarding `CCSc1nc(-c2ccc(Cl)cc2)cc(-c2ccc(OC)c(OC)c2)n1` [Compound 24, 4-(4-Chlorophenyl)-2-(ethylthio)-6-(3,4-dimethoxyphenyl)pyrimidine], the inhibition at 10 µM was less than 0%.

For the next test, the system named is MCF7. In words: NCI-60 single-dose screen. The format is cell-based. Conditions: Homo sapiens, single dose 10 µM, '-' = no inhibition, read-out: % Growth Inhibition. Put shortly:
as §1
As to `CCSc1nc(-c2ccc(Cl)cc2)cc(-c2ccc(OC)c(OC)c2)n1` [Compound 24, 4-(4-Chlorophenyl)-2-(ethylthio)-6-(3,4-dimethoxyphenyl)pyrimidine], the inhibition at 10 µM amounted to 18.5%.

The next test relates to RPMI-8226. In words: NCI-60 single-dose screen. Conditions: Homo sapiens, single dose 10 µM, '-' = no inhibition, read-out: % Growth Inhibition. The format is cell-based. Put shortly:
as §1
As to `CCSc1nc(-c2ccc(Cl)cc2)cc(-c2ccc(OC)c(OC)c2)n1` [Compound 24, 4-(4-Chlorophenyl)-2-(ethylthio)-6-(3,4-dimethoxyphenyl)pyrimidine], the inhibition at 10 µM amounted to 26.4%.

A further test relates to M14. In words: NCI-60 single-dose screen. The format is cell-based. The settings on record: Homo sapiens, single dose 10 µM, '-' = no inhibition, read-out: % Growth Inhibition. Put shortly:
as §1
`CCSc1nc(-c2ccc(Cl)cc2)cc(-c2ccc(OC)c(OC)c2)n1` [Compound 24, 4-(4-Chlorophenyl)-2-(ethylthio)-6-(3,4-dimethoxyphenyl)pyrimidine]: the inhibition at 10 µM is 3.7%.

The test system of a further test is MDA-MB231/ATCC. In words: NCI-60 single-dose screen. The class given is cell-based. Conditions: Homo sapiens, MDA-MB-231, single dose 10 µM, '-' = no inhibition, read-out: % Growth Inhibition. Put shortly: as §1
As for `CCSc1nc(-c2ccc(Cl)cc2)cc(-c2ccc(OC)c(OC)c2)n1` [Compound 24, 4-(4-Chlorophenyl)-2-(ethylthio)-6-(3,4-dimethoxyphenyl)pyrimidine], the inhibition at 10 µM was 16.9%.

In a further test the test system is OVCAR-8. In words: NCI-60 single-dose screen. The format is cell-based. Conditions: Homo sapiens, single dose 10 µM, '-' = no inhibition, read-out: % Growth Inhibition. Summed up: as §1
Turning to `CCSc1nc(-c2ccc(Cl)cc2)cc(-c2ccc(OC)c(OC)c2)n1` [Compound 24, 4-(4-Chlorophenyl)-2-(ethylthio)-6-(3,4-dimethoxyphenyl)pyrimidine], the inhibition at 10 µM came out at 6.83%.

Another test has as its system CCRF-CEM. In words: NCI-60 single-dose screen. The class given is cell-based. The settings on record: Homo sapiens, single dose 10 µM, '-' = no inhibition, read-out: % Growth Inhibition. Put shortly: as §1
Turning to `CCSc1nc(-c2ccc(Cl)cc2)cc(-c2ccc(OC)c(OC)c2)n1` [Compound 24, 4-(4-Chlorophenyl)-2-(ethylthio)-6-(3,4-dimethoxyphenyl)pyrimidine], the inhibition at 10 µM is 19.3%.

The test system of another test is SK-MEL-5. The test is described as follows: NCI-60 single-dose screen. The format is cell-based. Conditions: Homo sapiens, single dose 10 µM, '-' = no inhibition, read-out: % Growth Inhibition. Summed up: as §1
On to `CCSc1nc(-c2ccc(Cl)cc2)cc(-c2ccc(OC)c(OC)c2)n1` [Compound 24, 4-(4-Chlorophenyl)-2-(ethylthio)-6-(3,4-dimethoxyphenyl)pyrimidine], for which the inhibition at 10 µM is 28.9%.

For another test, the system named is OVCAR-4. In words: NCI-60 single-dose screen. The class given is cell-based. Conditions: Homo sapiens, single dose 10 µM, '-' = no inhibition, read-out: % Growth Inhibition. Put shortly: as §1
For `CCSc1nc(-c2ccc(Cl)cc2)cc(-c2ccc(OC)c(OC)c2)n1` [Compound 24, 4-(4-Chlorophenyl)-2-(ethylthio)-6-(3,4-dimethoxyphenyl)pyrimidine], the inhibition at 10 µM is 26.4%.

The test system of a further test is RXF 393. The test is described as follows: NCI-60 single-dose screen. The format is cell-based. The settings on record: Homo sapiens, single dose 10 µM, '-' = no inhibition, read-out: % Growth Inhibition. Summed up: as §1
As to `CCSc1nc(-c2ccc(Cl)cc2)cc(-c2ccc(OC)c(OC)c2)n1` [Compound 24, 4-(4-Chlorophenyl)-2-(ethylthio)-6-(3,4-dimethoxyphenyl)pyrimidine], the inhibition at 10 µM was 23.5%.

Another test deals with A549/ATCC. The test is described as follows: NCI-60 single-dose screen. Conditions: Homo sapiens, single dose 10 µM, '-' = no inhibition, read-out: % Growth Inhibition. The class given is cell-based. Put shortly: as §1
With `CCSc1nc(-c2ccc(Cl)cc2)cc(-c2ccc(OC)c(OC)c2)n1` [Compound 24, 4-(4-Chlorophenyl)-2-(ethylthio)-6-(3,4-dimethoxyphenyl)pyrimidine], the inhibition at 10 µM turned out to be 23%.

Another test relates to NCI-H522. The test is described as follows: NCI-60 single-dose screen. The format is cell-based. Conditions: Homo sapiens, single dose 10 µM, '-' = no inhibition, read-out: % Growth Inhibition. Summed up:
as §1
`CCSc1nc(-c2ccc(Cl)cc2)cc(-c2ccc(OC)c(OC)c2)n1` [Compound 24, 4-(4-Chlorophenyl)-2-(ethylthio)-6-(3,4-dimethoxyphenyl)pyrimidine]: the inhibition at 10 µM came out at 2.36%.

A further test has as its system UACC-257. The test is described as follows: NCI-60 single-dose screen. The format is cell-based. The settings on record: Homo sapiens, single dose 10 µM, '-' = no inhibition, read-out: % Growth Inhibition. Summed up: as §1
Turning to `CCSc1nc(-c2ccc(Cl)cc2)cc(-c2ccc(OC)c(OC)c2)n1` [Compound 24, 4-(4-Chlorophenyl)-2-(ethylthio)-6-(3,4-dimethoxyphenyl)pyrimidine], the inhibition at 10 µM turned out to be 13.5%.

Another test relates to UACC-62. In words: NCI-60 single-dose screen. The settings on record: Homo sapiens, single dose 10 µM, '-' = no inhibition, read-out: % Growth Inhibition. The format is cell-based. Put shortly:
as §1
As for `CCSc1nc(-c2ccc(Cl)cc2)cc(-c2ccc(OC)c(OC)c2)n1` [Compound 24, 4-(4-Chlorophenyl)-2-(ethylthio)-6-(3,4-dimethoxyphenyl)pyrimidine], the inhibition at 10 µM was less than 0%.

The test system of a further test is UO-31. The test is described as follows: NCI-60 single-dose screen. The class given is cell-based. The settings on record: Homo sapiens, single dose 10 µM, '-' = no inhibition, read-out: % Growth Inhibition. Put shortly:
as §1
In the case of `CCSc1nc(-c2ccc(Cl)cc2)cc(-c2ccc(OC)c(OC)c2)n1` [Compound 24, 4-(4-Chlorophenyl)-2-(ethylthio)-6-(3,4-dimethoxyphenyl)pyrimidine], the inhibition at 10 µM is 25.8%.

A further test concerns HT29. The test is described as follows: NCI-60 single-dose screen. The format is cell-based. The settings on record: Homo sapiens, HT-29, single dose 10 µM, '-' = no inhibition, read-out: % Growth Inhibition. Summed up: as §1
With `CCSc1nc(-c2ccc(Cl)cc2)cc(-c2ccc(OC)c(OC)c2)n1` [Compound 24, 4-(4-Chlorophenyl)-2-(ethylthio)-6-(3,4-dimethoxyphenyl)pyrimidine], the inhibition at 10 µM amounted to 28.3%.

For the next test, the system named is PC-3. The test is described as follows: NCI-60 single-dose screen. Conditions: Homo sapiens, single dose 10 µM, '-' = no inhibition, read-out: % Growth Inhibition. The class given is cell-based. Summed up:
as §1
As for `CCSc1nc(-c2ccc(Cl)cc2)cc(-c2ccc(OC)c(OC)c2)n1` [Compound 24, 4-(4-Chlorophenyl)-2-(ethylthio)-6-(3,4-dimethoxyphenyl)pyrimidine], the inhibition at 10 µM stood at 26.4%.

The next test deals with HCT-15. The test is described as follows: NCI-60 single-dose screen. The format is cell-based. Conditions: Homo sapiens, single dose 10 µM, '-' = no inhibition, read-out: % Growth Inhibition. Summed up:
as §1
Regarding `CCSc1nc(-c2ccc(Cl)cc2)cc(-c2ccc(OC)c(OC)c2)n1` [Compound 24, 4-(4-Chlorophenyl)-2-(ethylthio)-6-(3,4-dimethoxyphenyl)pyrimidine], the inhibition at 10 µM came to 30.7%.
